≈ marks a conversion by molar mass, not a printed value.
Experiments:
Format in all cases: cell-based
S. aureus A798 = assay: MIC by broth microdilution (NCCLS), S. aureus A798; conditions: cation-adjusted Mueller-Hinton Broth, pH 7.2-7.3; for MIC: Staphylococcus aureus, A798, second table
Description: (§1) These assays have been performed following the description given in “Methods for dilution Antimicrobial Susceptibility Tests for Bacteria that Grow Aerobically, 4th ed.; Approved standard: NCCLS Document M7-A4; National Committee for Clinical Laboratory Standards Villanova, Pa., USA, 1997”. Minimal inhibitory concentrations (MICs; mg/l) were determined in cation-adjusted Mueller-Hinton Broth (BBL) by a microdilution method following NCCLS guidelines (National Committee for Clinical Laboratory Standards. Methods for Dilution Antimicrobial Susceptibility). The pH of the test medium was 7.2-7.3. All Example compounds were tested against several Gram positive and Gram negative bacteria.

S. pneumoniae 49619 = assay: MIC by broth microdilution (NCCLS), S. pneumoniae 49619; conditions: cation-adjusted Mueller-Hinton Broth, pH 7.2-7.3
Description: as §1

M. catarrhalis A894 = assay: MIC by broth microdilution (NCCLS), M. catarrhalis A894; conditions: cation-adjusted Mueller-Hinton Broth, pH 7.2-7.3
Description: as §1

Molecule | MIC S. aureus A798 (S. aureus A798; second table) | other results
COc1ccc2nccc(NC(=O)C3CCC4(CC3)CN(c3ccc5c(c3)OCCO5)C(=O)O4)c2n1 (mixture of isomers) [Example 9, cis/trans-3-(2,3-dihydro-benzo[1,4]dioxin-6-yl)-2-oxo-1-oxa-3-aza-spiro[4.5]decane-8-carboxylic acid (6-methoxy-[1,5]naphthyridin-4-yl)-amide] | ≦0.031 mg/l | 
COc1ccc2nccc(CCC3CCC4(CC3)CN(c3ccc5c(c3)NC(=O)CO5)C(=O)O4)c2n1 (mixture of isomers) [Example 16, cis/trans-6-{8-[2-(6-methoxy-[1,5]naphthyridin-4-yl)-ethyl]-2-oxo-1-oxa-3-aza-spiro[4.5]dec-3-yl}-4H-benzo[1,4]oxazin-3-one] | ≦0.031 mg/l | 
COc1ccc2nccc(/C=C/C3CCC4(CC3)CN(c3ccc5c(c3)NC(=O)CS5)C(=O)O4)c2c1 (mixture of isomers) [Example 18, cis/trans-6-{8-[(E)-2-(6-methoxy-quinolin-4-yl)-vinyl]-2-oxo-1-oxa-3-aza-spiro[4.5]dec-3-yl}-4H-benzo[1,4]thiazin-3-one] | ≦0.031 mg/l | MIC S. aureus A798 (S. aureus A798): ≦0.031 mg/l; MIC S. pneumoniae 49619 (S. pneumoniae 49619): 0.125 µg/mL; MIC M. catarrhalis A894 (M. catarrhalis A894): ≦0.031 mg/l
COc1ccc2nccc(C(O)CN3CCC4(CC3)CN(c3ccc5c(c3)OCCO5)C(=O)O4)c2c1 (racemic) [Example 4, 3-(2,3-dihydro-benzo[1,4]dioxin-6-yl)-8-[(2RS)-2-hydroxy-2-(6-methoxy-quinolin-4-yl)-ethyl]-1-oxa-3,8-diaza-spiro[4.5]decan-2-one] |  | MIC (S. aureus A798): ≤ 0.031 µg/mL
COc1ccc2nccc(C(O)CN3CCC4(CC3)CN(c3ccc5c(c3)NC(=O)CS5)C(=O)O4)c2c1 (racemic) [Example 5, 6-{8-[(2RS)-2-hydroxy-2-(6-methoxy-quinolin-4-yl)-ethyl]-2-oxo-1-oxa-3,8-diaza-spiro[4.5]dec-3-yl}-4H-benzo[1,4]thiazin-3-one] |  | MIC (S. aureus A798): ≤ 0.031 µg/mL
C=CC[C@@H]1CN(C[C@H](O)c2ccnc3ccc(OC)cc23)CC[C@]12CN(c1ccc3c(c1)OCCO3)C(=O)O2 (racemic) [Example 6, (5RS, 6RS)-6-allyl-3-(2,3-dihydro-benzo[1,4]dioxin-6-yl)-8-[(2RS)-2-hydroxy-2-(6-methoxy-quinolin-4-yl)-ethyl]-1-oxa-3,8-diaza-spiro[4.5]decan-2-one] |  | MIC (S. aureus A798): 1 µg/mL (≈ 1.88 µM)
COC(=O)C[C@@H]1CN(C[C@H](O)c2ccnc3ccc(OC)cc23)CC[C@]12CN(c1ccc3c(c1)OCCO3)C(=O)O2 (racemic) [Example 7, (5RS,6RS)-{3-(2,3-dihydro-benzo[1,4]dioxin-6-yl)-8-[(2RS)-2-hydroxy-2-(6-methoxy-quinolin-4-yl)-ethyl]-2-oxo-1-oxa-3,8-diaza-spiro[4.5]dec-6-yl}-acetic acid methyl ester] |  | MIC (S. aureus A798): 2 µg/mL (≈ 3.55 µM)
COc1ccc2nccc([C@@H](O)CN3CC[C@]4(CN(c5ccc6c(c5)OCCO6)C(=O)O4)[C@H](CCO)C3)c2c1 (racemic) [Example 8, (5RS, 6RS)-3-(2,3-dihydro-benzo[1,4]dioxin-6-yl)-6-(2-hydroxy-ethyl)-8-[(2RS)-2-hydroxy-2-(6-methoxy-quinolin-4-yl)-ethyl]-1-oxa-3,8-diaza-spiro[4.5]decan-2-one] |  | MIC (S. aureus A798): 1 µg/mL (≈ 1.87 µM)
COc1ccc2nccc(OCC3CCC4(CC3)CN(c3ccc5c(c3)OCCO5)C(=O)O4)c2n1 (stereo not drawn) [Example 3, cis-3-(2,3-dihydro-benzo[1,4]dioxin-6-yl)-8-(6-methoxy-[1,5]naphthyridin-4-yloxymethyl)-1-oxa-3-aza-spiro[4.5]decan-2-one] | 2 µg/mL (≈ 4.19 µM) | 
COc1ccc2nccc(CCC3(O)CCC4(CC3)CN(c3ccc5c(c3)OCCO5)C(=O)O4)c2n1 (stereo not drawn) [Example 10, cis or trans-3-(2,3-dihydro-benzo[1,4]dioxin-6-yl)-8-hydroxy-8-[2-(6-methoxy-[1,5]naphthyridin-4-yl)-ethyl]-1-oxa-3-aza-spiro[4.5]decan-2-one] | 0.125 µg/mL (≈ 0.254 µM) | 
COc1ccc2nccc(CCC3(O)CCC4(CC3)CN(c3ccc5c(c3)OCCO5)C(=O)O4)c2n1 (stereo not drawn) [Example 11, cis or trans-3-(2,3-dihydro-benzo[1,4]dioxin-6-yl)-8-hydroxy-8-[2-(6-methoxy-[1,5]naphthyridin-4-yl)-ethyl]-1-oxa-3-aza-spiro[4.5]decan-2-one] | 0.25 µg/mL (≈ 0.509 µM) | 
COc1ccc2nccc(CCC3(O)CCC4(CC3)CN(c3ccc5c(c3)NC(=O)CS5)C(=O)O4)c2n1 (stereo not drawn) [Example 12, cis or trans-6-{8-hydroxy-8-[2-(6-methoxy-[1,5]naphthyridin-4-yl)-ethyl]-2-oxo-1-oxa-3-aza-spiro[4.5]dec-3-yl}-4H-benzo[1,4]thiazin-3-one] | ≦0.031 mg/l | 
COc1ccc2nccc(CCC3(O)CCC4(CC3)CN(c3ccc5c(c3)NC(=O)CS5)C(=O)O4)c2n1 (stereo not drawn) [Example 13, cis or trans-6-{8-hydroxy-8-[2-(6-methoxy-[1,5]naphthyridin-4-yl)-ethyl]-2-oxo-1-oxa-3-aza-spiro[4.5]dec-3-yl}-4H-benzo[1,4]thiazin-3-one] | ≦0.031 mg/l | 
COc1ccc2nccc(CCC3(O)CCC4(CC3)CN(c3ccc5c(c3)NC(=O)CO5)C(=O)O4)c2n1 (stereo not drawn) [Example 14, cis or trans-6-{8-hydroxy-8-[2-(6-methoxy-[1,5]naphthyridin-4-yl)-ethyl]-2-oxo-1-oxa-3-aza-spiro[4.5]dec-3-yl}-4H-benzo[1,4]oxazin-3-one] | ≦0.031 mg/l | 
COc1ccc2nccc(CCC3(O)CCC4(CC3)CN(c3ccc5c(c3)NC(=O)CO5)C(=O)O4)c2n1 (stereo not drawn) [Example 15, cis or trans-6-{8-hydroxy-8-[2-(6-methoxy-[1,5]naphthyridin-4-yl)-ethyl]-2-oxo-1-oxa-3-aza-spiro[4.5]dec-3-yl}-4H-benzo[1,4]oxazin-3-one] | ≦0.031 mg/l | 
COc1ccc2ncnc(OC[C@H]3CC[C@@]4(CC3)CN(c3ccc5c(c3)OCCO5)C(=O)O4)c2c1 [Example 19, cis-3-(2,3-dihydro-benzo[1,4]dioxin-6-yl)-8-(6-methoxy-quinazolin-4-yloxymethyl)-1-oxa-3-aza-spiro[4.5]decan-2-one] | 0.125 µg/mL (≈ 0.262 µM) | MIC S. aureus A798 (S. aureus A798): 0.125 µg/mL (≈ 0.262 µM); MIC S. pneumoniae 49619 (S. pneumoniae 49619): 0.25 µg/mL (≈ 0.524 µM); MIC M. catarrhalis A894 (M. catarrhalis A894): 0.5 µg/mL (≈ 1.05 µM)
(5R,6R,8S)-3-(2,3-dihydro-benzo[1,4]dioxin-6-yl)-8-[(2R)-2-hydroxy-2-(6-methoxy-[1,5]naphthyridin-4-yl)-ethyl]-6-hydroxymethyl-1,7-dioxa-3-aza-spiro[4.5]decan-2-one and (5R,6R,8S)-3-(2,3-dihydro-benzo[1,4]dioxin-6-yl)-8-[(2S)-2-hydroxy-2-(6-methoxy-[1,5]naphthyridin-4-yl)-ethyl]-6-hydroxymethyl-1,7-dioxa-3-aza-spiro[4.5]decan-2-one [Example 1] | 0.5 µg/mL | 

Second part, led by results:

MIC S. aureus A798 (S. aureus A798; second table) | Molecule | other results
2 µg/mL | COc1ccc2nccc(/C=C/C3CCC4(CC3)CN(c3ccc5c(c3)OCCO5)C(=O)O4)c2c1 (mixture of isomers) [Example 17, cis/trans-3-(2,3-dihydro-benzo[1,4]dioxin-6-yl)-8-[(E)-2-(6-methoxy-quinolin-4-yl)-vinyl]-1-oxa-3-aza-spiro[4.5]decan-2-one] | 
0.25 µg/mL (≈ 0.525 µM) | COc1ccc2nccc(OCC3CCC4(CC3)CN(c3ccc5c(c3)OCCO5)C(=O)O4)c2c1 (stereo not drawn) [Example 2, cis-3-(2,3-dihydro-benzo[1,4]dioxin-6-yl)-8-(6-methoxy-quinolin-4-yloxymethyl)-1-oxa-3-aza-spiro[4.5]decan-2-one] | 

From patent US7999115B2, “Spiro antibiotic derivatives” (Actelion Pharmaceutical Ltd., priority 2006, dated 2011)
